This note sets out measurements from patent publication US20240373849A1, “INSECT NEUROPEPTIDE ANALOGUES” (THE UNIVERSITY COURT OF THE UNIVERSITY OF GLASGOW, priority 2020, published 2024).

“And” between values parts separate entries of the source, which are not always exact repeats. Equal values may be shown once. Square brackets hold non-standard residues; d marks the D form. * marks the point of attachment. Guanidyl = -C(=N+Me2)NMe2 on the N-terminal amine (tetramethylguanidyl cap), CN(C)C(=[N+](C)C)*; Benzoyl(4-benzoyl) = O=C(c1ccccc1)c1ccc(C(=O)*)cc1; Palmitoyl = CCCCCCCCCCCCCCCC(=O)*; NMeV = CN[C@H](C(=O)O)C(C)C; NMeA = CN[C@@H](C)C(=O)O

Series [1] relates to bumblebees (Bombus terrestris). Description: Bumblebee acute oral toxicity test. It is filed as in vivo. How it is done: Oral toxicity against bumblebees (Bombus terrestris) was determined as previously described:
OECD (2017), Test No. 247: Bumblebee, Acute Oral Toxicity Test, OECD Guidelines for the Testing of Chemicals, Section 2, OECD Publishing, Paris, https://doi.org/10.1787/9789264284128-en.
Example data are provided for peptides, AH56, AH257, AH259 in Tables 4, 5 below. […]
Data were acquired for: feeding behaviour—weight of liquid consumed pre- and post-treatment; lethality (days).
There was no negative impact on feeding behaviour from capa peptides. Acute bumblebee toxicity was also assessed for other peptide candidates including: AH270, PEG270. Overall, capa peptides are bee safe.

The test system of series [2] is Drosophila suzukii larvae. Nature of the series: Drosophila suzukii larval feeding (Example 8; peptide screening). It is filed as in vivo. The following applies: for D. suzukii (Mean% Lethality ± SD) / D. suzukii (Sig Diff Grp): Peptide screening, Table 5; for D. suzukii (Mean% Lethality ± SD): blank control 20.33; for D. suzukii (Sig Diff Grp): difference in survival. Details: key to D. suzukii (Sig Diff Grp): A indicates a significant difference in survival compared with control (blank).; B indicates a significant difference in survival compared with scrambled capa1.; C indicates a significant difference in survival compared with scrambled capa2. How it is done: (§1) First to Fourth generations of peptides were produced with varying structures and tested for CAPA receptor agonist activity, and screened for lethality in vivo against D. suzukii and M. persicae as per methods in example 2 and example 8. The top performing peptides were selected and gave rise to the list of CAPA1 and CAPA2 peptides provided above in Table 1 which were then further tested in the following applied examples.
Peptides were tested at concentrations ranging from [10^−4 M] to [10^−7 M] in a final volume of 200 μl of 0.8% agarose containing 0.09% m-Cresol purple pH marker dye (Sigma) and 5% sucrose (Sigma).
Agarose was melted in dH2O, before addition of sucrose and dye. The agarose/dye solution was then allowed to cool to 60° C. 96 well plates (flat-bottomed 3596 TC-plates; Corning) containing 20 μl volumes of neuropeptide per well were prepared, and 180 μl agarose/dye solution dispensed into each well via a Distriman repetitive micro-pipettor (Gilson). Controls contained 20 μl dH2O as a ‘sham’ treatment with 180 μl of the 0.8% agarose/dye solution. Plates were agitated at 800 rpm, to ensure mixing, at 60° C. (Eppendorf Thermomixer C). Plates were then allowed to cool, and agarose/dye solution solidify, prior to use.
Each peptide was assayed with a minimum of 7 to maximum 9 late L2/early L3 Spotted wing Drosophila, Drosophila suzukii, (feeding) larvae per well, minimum n=8 wells per peptide concentration and a minimum n=12 control wells per plate. The selected larvae were first washed 2× in ice cold Drosophila Schneider's liquid medium (ThermoFisher) before insertion into wells to remove extraneous food. After complete insertion of all larvae the plates were covered with breathable sealing membrane for multi-well plates (Sigma).
Larvae were assayed for lethality after 48 hr exposure at 21° C. and findings recorded. During examination the assay plate was kept on ice, to reduce larval locomotor activity (wandering), and larvae in each well were examined using a binocular stereomicroscope (Zeiss).
The water control group was used to determine baseline lethality. Results for neuropeptide analogues were calculated as % lethality in the remaining population after adjustment for the baseline. Results are shown in Tables 7 and 8 below, and in FIG. 1.

Series [3] concerns M. persicae. Nature of the series: Feeding of aphids with peptides in artificial diet (Example 1). The following applies: 10^−5 M. It is filed as in vivo, Myzus persicae. As to the method: A standard artificial diet for M. persicae was produced as described in Van Emden (2009) and provided the basal diet to which peptides were added for screening purposes. Peptides were diluted individually in the artificial diet to a pre-determined concentration.
Feeding apparatus were constructed using a set-up developed by Sadeghi et al (2009). For this, a piece of Parafilm was stretched over a Plexiglas ring (h=4 cm, Ø=3 cm) and 100 μl of the artificial diet containing the desired neuropeptide analogue was pipette onto the Parafilm membrane. A second piece of Parafilm, stretched to 4 times the original thickness, was stretched over the original layer, sandwiching the artificial diet between two layers of Parafilm. A strip of Parafilm was wrapped around the circumference of the Plexiglas ring, sealing in the diet. A plastic ring (h=1.2 cm, Ø=3.4 cm) was subsequently placed over the Parafilm layer, creating a walled chamber in which to house test aphids in contact with the Parafilm layer containing the artificial diet. Finally, a small Petri dish (h=1 cm, Ø=3.6 cm), modified for ventilation with net cloth, was placed on top of each feeding apparatus to prevent aphid escape.
To obtain aphids for use in experiments, reproducing anholocyclic adults were placed on individual excised leaves of Chinese cabbage at densities of 5 adults per leaf and allowed to reproduce for 24 h. The stem of each excised leaf was held within a 0.5 mL Eppendorf tube containing water via a punctured hole in the Eppendorf lid, and placed individually within a microcage (L=4 cm, Ø=9.5 cm). Following 24h, adults were removed and resultant first instar nymphs (<1 day old and synchronised in age to within 24h) retained. Nymphs were allowed to develop on the Chinese cabbage for 5 days. On day 5, (3rd instar) nymphs were transferred onto the artificial diet containing a neuropeptide analogue at densities of 1 per feeding chamber and monitored daily until death. Aphids were transferred to fresh artificial diet (containing neuropeptide analogue or water control) every 5 days.
The water control group was used to determine baseline lethality. Results for neuropeptide analogues were calculated as % lethality in the remaining population after adjustment for the baseline.

The next series deals with Myzus persicae aphids. Nature of the series: Topical application by spraying, Potter Spray Tower (Example 3). It is filed as in vivo. As to conditions: 10^−5 M; 48 hours post spray. As to the method:
Aphids were exposed to test peptides in the absence of additional external stress conditions.
Brassica rapa (Chinese cabbage; Wong Bok) were infested with 30 adult Myzus persicae aphids per plant. Aphids were left at least 2 hours to settle and begin feeding from the host plant.
Potter Spray Tower (Burkard Manufacturing) was ‘primed’ by spraying 1000 μl of liquid coating the inside of the tower. Vehicle spray only (Croda ATPlus UEP 100 LQ-(CQ) 0.1% v/v) was used as a control.
Spray volumes for all solutions were 3000 μl. […] After spraying was completed the plant was allowed to rest on the spray platform for 30 seconds to allow settling of the sprayed chemical.
Post peptide application, each condition was placed into its own individual Bugdorm (Watkins and Doncaster, 44545), to prevent repulsed or displaced aphids moving from one condition to another. Numbers of alive and dead aphids on the plant were counted 48 hours post spray, and the presence of any fresh nymphs noted. Plants were watered prior to spraying but not afterwards to eliminate the possibility of drowning any aphids present or washing off the sprayed liquid.
The vehicle control group was used to determine baseline lethality. Results for neuropeptide analogues were calculated as % lethality in the remaining population after adjustment for the baseline.

Series [4] concerns M. persicae. Nature of the series: Feeding of aphids with peptides in artificial diet (Example 2; peptide screening, honeydew). It is filed as in vivo, Myzus persicae. The following applies: Peptide screening, Table 5.
From the text: as §1
The aphid feeding protocol was devised according to Sadeghi et al (2009) as explained in example 1. Feeding discs were designed and manufactured as above. A standard sucrose-based artificial diet for M. persicae (30 aphids per chamber, 3 chambers per experiment unless otherwise stated) was produced as described in example 1 (Sadeghi et al, J. Insect Science, 2009) and provided the basal diet to which peptides were added for screening purposes. Peptides were diluted individually in the artificial diet to 10^−5 M. Lethality was scored after up to 120 hours (IRAC guidelines for aphid testing).
Membrane discs were also included to collect ‘honeydew’ secreted by feeding aphids and stained with ninhydrin to observe feeding patterns.
Comparison of purple stain in controls to treated aphids, show there is very little colour on many membranes where peptides were added.
Capa peptides cause mortality in M. persicae via feeding: At 120 hours, AH383 and AH387 peptides induce ˜60% mean (and median) lethality. Although mean lethality is lower with AH270/PEGAH270 (40%), 100% lethality is observed in one sample of 30 insects (AH270); and 90% in at least one sample of each of AH383, AH387 and PEGAH270 (FIG. 3). Note that PEGAH270 is a pegylated form of peptide AH270.

[5] abbreviates: Table 11, individual bees, peptide 1 × 10 − 5M or Spirotetramat 25 uM.

Regarding `CCOC(=O)OC1=C(c2cc(C)ccc2C)C(=O)N[C@]12CC[C@@H](OC)CC2` [Spirotetramat, reference compound], in series [1] (Table 11, group mean, n=10), the “Liquid post exposure (weight), Mean” value was 1.109 g and the “liquid consumed per day post exposure, Mean” value was determined as 0.2773 g. For the same compound, in series [1] (setting [5]), the “Liquid post exposure (weight)” value was 0.7878 g and 1.2332 g and 0.2963 g and 1.7853 g and 1.2062 g and 2.1130 g and 0.6196 g and 0.7732 g and 1.3842 g and 0.8924 g; the days alive was 4 days; the “liquid consumed per day post exposure” value is 0.1970 g and 0.3083 g and 0.0741 g and 0.4463 g and 0.3016 g and 0.5283 g and 0.1549 g and 0.1933 g and 0.3461 g and 0.2231 g.

Consider “Guanidyl-LV-(Me)A-FPRV-NH2 (Guanidyl-LV[NMeA]FPRV-NH2; SMILES CC(C)C[C@H](NC(N(C)C)=[N+](C)C)C(=O)N[C@H](C(=O)N(C)[C@@H](C)C(=O)N[C@@H](Cc1ccccc1)C(=O)N1CCC[C@H]1C(=O)N[C@@H](CCCNC(=N)N)C(=O)N[C@H](C(N)=O)C(C)C)C(C)C) [AH258]”, for which, in series [2], the “D. suzukii (Mean% Lethality ± SD)” value is on record as 47.75% and the “D. suzukii (Sig Diff Grp)” value is on record as “A”.

H-Nle-LYAFPRV-NH2 [AH51]: in series [2], the “D. suzukii (Mean% Lethality ± SD)” value was 38.63% and the “D. suzukii (Sig Diff Grp)” value is “A”.

With “4-Benzoyl benzoic-LYAFPRV-NH2 ({Benzoyl(4-benzoyl)}-LYAFPRV-NH2; SMILES CC(C)C[C@H](NC(=O)c1ccc(C(=O)c2ccccc2)cc1)C(=O)N[C@@H](Cc1ccc(O)cc1)C(=O)N[C@@H](C)C(=O)N[C@@H](Cc1ccccc1)C(=O)N1CCC[C@H]1C(=O)N[C@@H](CCCNC(=N)N)C(=O)N[C@H](C(N)=O)C(C)C) [AH49]”, in series [2], the “D. suzukii (Mean% Lethality ± SD)” value worked out at 41.13% and the “D. suzukii (Sig Diff Grp)” value is reported as “A”.

With “H-LYAFAR-(Me)V-NH2 (H-LYAFAR[NMeV]-NH2; SMILES CC(C)C[C@H](N)C(=O)N[C@@H](Cc1ccc(O)cc1)C(=O)N[C@@H](C)C(=O)N[C@@H](Cc1ccccc1)C(=O)N[C@@H](C)C(=O)N[C@@H](CCCNC(=N)N)C(=O)N(C)[C@H](C(N)=O)C(C)C) [AH380]”, in series [2] (10^−5 M, 48 hr exposure), the “Feeding D. suzukii, % lethality in population after adjustment for baseline” value is on record as 45%. Moreover, the “Feeding Aphid, % lethality in population after adjustment for baseline” value in the series on M. persicae [3] is 12%. Moreover, the “Spray Aphid, % lethality in population after adjustment for baseline” value in the series on Myzus persicae aphids came to 33%.

“Palmitoyl-LYAFPRV-NH2 (SMILES CCCCCCCCCCCCCCCC(=O)N[C@@H](CC(C)C)C(=O)N[C@@H](Cc1ccc(O)cc1)C(=O)N[C@@H](C)C(=O)N[C@@H](Cc1ccccc1)C(=O)N1CCC[C@H]1C(=O)N[C@@H](CCCNC(=N)N)C(=O)N[C@H](C(N)=O)C(C)C) [AH62]”: the “M. persicae (% Lethality)” value in the series on M. persicae [4] was 29%.

Consider “Palmitoyl-LVAFPRV-NH2 (SMILES CCCCCCCCCCCCCCCC(=O)N[C@@H](CC(C)C)C(=O)N[C@H](C(=O)N[C@@H](C)C(=O)N[C@@H](Cc1ccccc1)C(=O)N1CCC[C@H]1C(=O)N[C@@H](CCCNC(=N)N)C(=O)N[C@H](C(N)=O)C(C)C)C(C)C) [AH59]”, for which, in series [2], the “D. suzukii (Mean% Lethality ± SD)” value worked out at 44.13% and the “D. suzukii (Sig Diff Grp)” value is recorded as “A”.

In the case of Ac-LYAFPRV-NH2 [AH32], in series [2], the “D. suzukii (Mean% Lethality ± SD)” value is 41.50% and the “D. suzukii (Sig Diff Grp)” value was “A”.

Turning to Ac-LVAFPRV-NH2 [AH33], in series [2], the “D. suzukii (Mean% Lethality ± SD)” value is reported as 43.50% and the “D. suzukii (Sig Diff Grp)” value is listed as “A”.

With “4-Benzoyl benzoic-LVAFPRV-NH2 ({Benzoyl(4-benzoyl)}-LVAFPRV-NH2; SMILES CC(C)C[C@H](NC(=O)c1ccc(C(=O)c2ccccc2)cc1)C(=O)N[C@H](C(=O)N[C@@H](C)C(=O)N[C@@H](Cc1ccccc1)C(=O)N1CCC[C@H]1C(=O)N[C@@H](CCCNC(=N)N)C(=O)N[C@H](C(N)=O)C(C)C)C(C)C) [AH55]”, the “D. suzukii (Mean% Lethality ± SD)” value in series [2] worked out at 54.50%.

For `O=[N+]([O-])NC1=NCCN1Cc1ccc(Cl)nc1` [imidacloprid, Imidacloprid, reference compound], in series [1] (28.3 uM, on day 1), the lethality of bumblebees is recorded as 100%. Further, the “dead?” value in series [1] (Table 10, individual bees, peptide ×10−5M or imidacloprid 28.3 uM in 50% sucrose, 0.1% ATPlus) was 1. Besides, in series [1] (individual bees, peptide ×10−5M or imidacloprid 28.3 uM in 50% sucrose, 0.1% ATPlus), the “Est weight sucrose consumed post testing/day” value was 0.0822 grams/day and 0.0000 grams/day and 0.0495 grams/day and 0.0562 grams/day and 0.2205 grams/day and 0.4394 grams/day. Moreover, the “Feeding impacted? (+ve feeding increased post pep, −ve feeding decreased post pep)” value in series [1] (individual bees, post minus pre testing sucrose consumption) was −0.1179 grams/day and −0.1209 grams/day and −0.1306 grams/day and −0.3025 grams/day and −0.1495 grams/day and −0.1412 grams/day and 0.0704 grams/day and −0.3396 grams/day and 0.1955 grams/day and −0.2914 grams/day and −0.3507 grams/day. Moreover, in series [1] (per treatment group), the “T-test outcome, sucrose consumed Pre vs Post” value is given as “Feeding sig reduced”.
